# Read-outs that look alike come from different tables or passages of the source.
# What was measured:
# [1] = system: Streptococcus uberis; experiment: in vitro bacteriostatic activity, agar dilution MIC; type: cell-based; conditions: Streptococcus uberis 12-1
# [2] = system: Corynebacterium; experiment: as above; type: cell-based; conditions: Coryneba cterium 12-1
# [3] = system: Staphylococcus wameri; experiment: as above; type: cell-based
# [4] = system: Staphylococcus sciuri; experiment: as above; type: cell-based; conditions: Mammaliicoccus sciuri; Staphylococcus sciuri 12-1
# [5] = system: Staphylococcus xylosus; experiment: as above; type: cell-based
# [6] = system: Staphylococcus auricularis; experiment: as above; type: cell-based
# [7] = system: Staphylococcus haemolyticus; experiment: as above; type: cell-based
# [8] = system: Pseudomonas aeruginosa; experiment: as above; type: cell-based; conditions: Pseudomonas aeruginosa12-1
# [9] = system: Acinetobacter lwoffii; experiment: as above; type: cell-based
# [10] = system: Staphylococcus aureus MSSA; experiment: as above; type: cell-based; conditions: Staphylococcus aureus, MSSA, read-out: MIC
# [11] = system: Staphylococcus epidermidis MSSE; experiment: as above; type: cell-based; conditions: Staphylococcus epidermidis, read-out: MIC
# [12] = system: Staphylococcus aureus MRSA; experiment: as above; type: cell-based
# [13] = system: Staphylococcus epidermidis MRSE; experiment: as above; type: cell-based
# [14] = system: Streptococcus pneumoniae; experiment: as above; type: cell-based
# [15] = system: Klebsiella pneumonia E^+; experiment: as above; type: cell-based; conditions: Klebsiella pneumoniae
# [16] = system: Klebsiella pneumonia; experiment: in vitro bacteriostatic activity, agar dilution MIC, quality control strain and summary; type: cell-based; conditions: Klebsiella pneumoniae
# [17] = system: Gram-positive bacteria and Gram-negative bacteria; experiment: in vitro bacteriostatic activity, summary of Tables 1-5; type: cell-based; conditions: read-out: MIC values
# Protocol: Preparation of drug-containing flat plates: patchoulol was diluted by coubling double dilution in DMSO, and 1 ml and 14 ml of sterile MH culture media in different gradient concentrations were respectively added to the disposable sterile petri dishes. Tested drugs were respectively diluted to different gradient concentrations from 768 to 0.006 µg/ml, fully mixed, and dried to reserve. As mentioned above, replacing tested drug with same amount of normal saline was used to prepare positive control plates.
# Preparation of bacterial liquid: Tested strains and drug-sensitive strains used for quality control were diluted with stroke-physiological saline solution to the concentration of 10^6 CFU/ml. […]
# Staphylococcus aureus and Staphylococcus epidermidis were cultured at 35-37°C for 18-24 h in MH media (containing 2% NaCl); Streptococcus pneumonia was cultured in brain heart infusion agar media (containing 5% goat blood) within an incubator under 5% CO2 at 35°C for 24 hours; Gram-negative bacteria and other strains were placed in an incubator at 35-37°C and cultured for 18-20 h; Results were observed and recorded. […]
# [18] = system: influenza virus A/FM/1/47 (H1N1); conditions: intragastric 40 and 80 mg/kg for successive 7 days; cited from earlier work
# [19] = system: humoral immunity and mononuclear phagocyte functions; conditions: intragastric 40 and 80 mg/(kg·d) for successive 7 days; cited from earlier work
# [20] = system: Staphylococcus aureus ATCC 25923; experiment: prevention of bacterial infection, colony count on patchoulol-coated tubes; conditions: cultured 7 days at 37°C
structure (smiles),measurement,setting,value
"C[C@H]1CC[C@@]2(O)C(C)(C)[C@@H]3CC[C@@]2(C)[C@H]1C3 (stereo in doubt) [PC, (1R,4S,4aS,6R,8aS)-octahydro-4,8a,9,9-tetramethyl-1,6-methanonaphthalen-1(2H)-ol]",MIC,[1],25 µg/mL
same,MIC,[2],12.5 µg/mL
same,MIC,[3],50 µg/mL
same,MIC,[4],50 µg/mL
same,MIC,"[5]; Staphylococcus xylosus 12-1 (first line, r17), read-out: MIC",100 µg/mL
same,MIC,"[5]; Staphylococcus xylosus 12-1 (second line, r18)",100 µg/mL
same,MIC,"[6]; Staphylococcus auricularis (first line, r19)",25 µg/mL
same,MIC,"[6]; Staphylococcus auricularis (second line, r20)",50 µg/mL
same,MIC,[7],100 µg/mL
same,MIC,[8],50 µg/mL
same,MIC,"[9]; Acinetobacter lwoffii 12-1, read-out: MIC",50 µg/mL
same,MIC,[9]; Acinetobacter lwoffii 12-2,50 µg/mL
same,MIC,[10]; Staphylococcus aureus MSSA 10-38,1.5 µg/mL
same,MIC,[10]; Staphylococcus aureus MSSA 10-40,1.5 µg/mL
same,MIC,[10]; Staphylococcus aureus MSSA 10-41,1.5 µg/mL
same,MIC,[10]; Staphylococcus aureus MSSA 12-11,128 µg/mL
same,MIC,[10]; Staphylococcus aureus MSSA 12-13,128 µg/mL
same,MIC,[10]; Staphylococcus aureus MSSA 12-14,64 µg/mL
same,MIC,[10]; Staphylococcus aureus MSSA 12-15,128 µg/mL
same,MIC,[10]; Staphylococcus aureus MSSA 12-16,64 µg/mL
same,MIC,[10]; Staphylococcus aureus MSSA 12-17,64 µg/mL
same,MIC,[10]; Staphylococcus aureus MSSA 12-18,128 µg/mL
same,MIC,[10]; Staphylococcus aureus MSSA 12-19,128 µg/mL
same,MIC,[10]; Staphylococcus aureus MSSA 12-20,64 µg/mL
same,MIC,[10]; Staphylococcus aureus MSSA 12-21,64 µg/mL
same,MIC,[11]; Staphylococcus epidermidis MSSE 10-43,1.5 µg/mL
same,MIC,[11]; Staphylococcus epidermidis MSSE 10-44,1.5 µg/mL
same,MIC,[11]; Staphylococcus epidermidis MSSE 12-11,32 µg/mL
same,MIC,[11]; Staphylococcus epidermidis MSSE 12-12,32 µg/mL
same,MIC,[11]; Staphylococcus epidermidis MSSE 12-13,64 µg/mL
same,MIC,[11]; Staphylococcus epidermidis MSSE 12-14,64 µg/mL
same,MIC,[11]; Staphylococcus epidermidis MSSE 12-15,64 µg/mL
same,MIC,[11]; Staphylococcus epidermidis MSSE 12-16,32 µg/mL
same,MIC,[11]; Staphylococcus epidermidis MSSE 12-17,32 µg/mL
same,MIC,[11]; Staphylococcus epidermidis MSSE 12-18,32 µg/mL
same,MIC,[11]; Staphylococcus epidermidis MSSE 12-19,32 µg/mL
same,MIC,[11]; Staphylococcus epidermidis MSSE 12-20,64 µg/mL
same,MIC,"[12]; ATCC 43300 / MRSA, Methicillin-resistant Staphylococcus aureus ATCC 43300, read-out: MIC",128 µg/mL
same,MIC,"[12]; MRSA, Staphylococcus aureus MRSA 10-31, read-out: MIC",1.5 µg/mL
same,MIC,"[12]; MRSA, Staphylococcus aureus MRSA 10-32, read-out: MIC",1.5 µg/mL
same,MIC,"[12]; MRSA, Staphylococcus aureus MRSA 12-11, read-out: MIC",128 µg/mL
same,MIC,"[12]; MRSA, Staphylococcus aureus MRSA 12-12, read-out: MIC",128 µg/mL
same,MIC,"[12]; MRSA, Staphylococcus aureus MRSA 12-13, read-out: MIC",64 µg/mL
same,MIC,"[12]; MRSA, Staphylococcus aureus MRSA 12-14, read-out: MIC",64 µg/mL
same,MIC,"[12]; MRSA, Staphylococcus aureus MRSA 12-15, read-out: MIC",64 µg/mL
same,MIC,"[12]; MRSA, Staphylococcus aureus MRSA 12-16, read-out: MIC",64 µg/mL
same,MIC,"[12]; MRSA, Staphylococcus aureus MRSA 12-17, read-out: MIC",128 µg/mL
same,MIC,"[12]; MRSA, Staphylococcus aureus MRSA 12-18, read-out: MIC",128 µg/mL
same,MIC,"[12]; MRSA, Staphylococcus aureus MRSA 12-19, read-out: MIC",64 µg/mL
same,MIC,"[12]; MRSA, Staphylococcus aureus MRSA 12-20, read-out: MIC",128 µg/mL
same,MIC,"[13]; Staphylococcus epidermidis MRSE 10-40, read-out: MIC",1.5 µg/mL
same,MIC,"[13]; Staphylococcus epidermidis MRSE 10-44, read-out: MIC",1.5 µg/mL
same,MIC,"[13]; Staphylococcus epidermidis MRSE 12-11, read-out: MIC",128 µg/mL
same,MIC,"[13]; Staphylococcus epidermidis MRSE 12-12, read-out: MIC",32 µg/mL
same,MIC,"[13]; Staphylococcus epidermidis MRSE 12-15, read-out: MIC",32 µg/mL
same,MIC,"[13]; Staphylococcus epidermidis MRSE 12-16, read-out: MIC",32 µg/mL
same,MIC,"[13]; Staphylococcus epidermidis MRSE 12-17, read-out: MIC",32 µg/mL
same,MIC,"[13]; Staphylococcus epidermidis MRSE 12-18, read-out: MIC",32 µg/mL
same,MIC,"[13]; Staphylococcus epidermidis MRSE 12-19, read-out: MIC",32 µg/mL
same,MIC,"[13]; Staphylococcus epidermidis MRSE 12-20, read-out: MIC",128 µg/mL
same,MIC,"[13]; Staphylococcus epidermidis MRSE 12-21, read-out: MIC",128 µg/mL
same,MIC,"[13]; Staphylococcus epidermidis MRSE 12-22, read-out: MIC",32 µg/mL
same,MIC,"[14]; ATCC49619, Streptococcus pneumonia ATCC 49619",200 µg/mL
same,MIC,[14]; Streptococcus pneumonia 12-6,100 µg/mL
same,MIC,[14]; Streptococcus pneumonia 12-7,200 µg/mL
same,MIC,[14]; Streptococcus pneumonia 12-8,100 µg/mL
same,MIC,[14]; Streptococcus pneumonia 12-9,100 µg/mL
same,MIC,[14]; Streptococcus pneumonia 12-10,200 µg/mL
same,MIC,[14]; Streptococcus pneumoniae 12-1,200 µg/mL
same,MIC,[14]; Streptococcus pneumoniae 12-2,100 µg/mL
same,MIC,[14]; Streptococcus pneumoniae 12-3,200 µg/mL
same,MIC,[14]; Streptococcus pneumoniae 12-4,200 µg/mL
same,MIC,[14]; Streptococcus pneumoniae 12-5,100 µg/mL
same,MIC,[15]; Klebsiella pneumonia E^+ 10-2,> 768 µg/mL
same,MIC,[15]; Klebsiella pneumonia E^+ 10-6,> 768 µg/mL
same,MIC,"[16]; ATCC700603, Klebsiella pneumonia ATCC 700603, read-out: MIC",> 768 µg/mL
same,MIC,"[16]; summary, Klebsiella pneumonia ESBLs^-/ESBLs^+, read-out: MIC values",≥ 768 µg/mL
same,MIC,[17],1.5 to 200 µg/mL
same,survival rate of nonlethal and lethal model mice,[18],obviously improve the survival rate
same,"thymus gland index, spleen index, sanguinin content, and clearance index",[19],effectively improve
same,bacterial colony numbers,"[20]; 400, 200, 100 and 50 µg/ml, compared with 0 µg/ml",decrease
same,bacterial colony numbers,[20]; patchoulol on intraductal membranes more than or equal to 600 µg/ml,0

# Reference: patent EP2826473A1, “NOVEL USE OF PATCHOULOL” (Chengdu Huasun Group Inc., Ltd., priority 2012, dated 2013)
